Laboratory results as given in ChEMBL document CHEMBL1125575, “2-[(2-pyridylmethyl)sulfinyl]-1H-thieno[3,4-d]imidazoles. A novel class of gastric H+/K(+)-ATPase inhibitors” (J Med Chem, 1992).

What was measured:
[1] = species: Rattus norvegicus; assay: animal or person; details: Stomach, iv, read-out: Inhibition
[2] = Chemical stability at pH 5.0; assay type: physicochemical; details: buffer
[3] = species: Canis familiaris; assay: animal or person; details: Canis lupus familiaris, iv
[4] = species: Oryctolagus cuniculus; assay: cells; assay type: functional, organism-based, Stomach
Description: In vitro inhibition of 14C amino-pyrine uptake was determined in isolated rabbit gastric glands after dbcAMP stimulation

[5] = species: Canis familiaris; assay: animal or person; details: Canis lupus familiaris, Stomach, intraduodenal, read-out: Inhibition
[6] = Chemical stability at pH 7.0; assay type: physicochemical; details: buffer
[7] = animal or person; details: Canis lupus familiaris, Stomach, iv, read-out: Inhibition
[8] = Chemical stability at pH 2.0; assay type: physicochemical; details: buffer
[9] = test system: Canis familiaris; assay: Antisecretory activity calculated in heidenhain-pouch dog after id administration of the drug, value in parenthesis indicates 95% confidence limits; assay type: functional; details: Canis lupus familiaris
[10] = test system: Canis familiaris; assay: In vivo inhibition of gastric acid secretion was calculated in heidenhain-pouch dog after iv administration of the drug at a dose of 0.3 mg/kg; assay type: functional; details: Canis lupus familiaris, Stomach
[11] = biological target: Potassium-transporting ATPase alpha chain 1 (Sus scrofa, UniProt P19156)
Chain of Potassium-transporting ATPase alpha chain 1 (P19156 whole entry): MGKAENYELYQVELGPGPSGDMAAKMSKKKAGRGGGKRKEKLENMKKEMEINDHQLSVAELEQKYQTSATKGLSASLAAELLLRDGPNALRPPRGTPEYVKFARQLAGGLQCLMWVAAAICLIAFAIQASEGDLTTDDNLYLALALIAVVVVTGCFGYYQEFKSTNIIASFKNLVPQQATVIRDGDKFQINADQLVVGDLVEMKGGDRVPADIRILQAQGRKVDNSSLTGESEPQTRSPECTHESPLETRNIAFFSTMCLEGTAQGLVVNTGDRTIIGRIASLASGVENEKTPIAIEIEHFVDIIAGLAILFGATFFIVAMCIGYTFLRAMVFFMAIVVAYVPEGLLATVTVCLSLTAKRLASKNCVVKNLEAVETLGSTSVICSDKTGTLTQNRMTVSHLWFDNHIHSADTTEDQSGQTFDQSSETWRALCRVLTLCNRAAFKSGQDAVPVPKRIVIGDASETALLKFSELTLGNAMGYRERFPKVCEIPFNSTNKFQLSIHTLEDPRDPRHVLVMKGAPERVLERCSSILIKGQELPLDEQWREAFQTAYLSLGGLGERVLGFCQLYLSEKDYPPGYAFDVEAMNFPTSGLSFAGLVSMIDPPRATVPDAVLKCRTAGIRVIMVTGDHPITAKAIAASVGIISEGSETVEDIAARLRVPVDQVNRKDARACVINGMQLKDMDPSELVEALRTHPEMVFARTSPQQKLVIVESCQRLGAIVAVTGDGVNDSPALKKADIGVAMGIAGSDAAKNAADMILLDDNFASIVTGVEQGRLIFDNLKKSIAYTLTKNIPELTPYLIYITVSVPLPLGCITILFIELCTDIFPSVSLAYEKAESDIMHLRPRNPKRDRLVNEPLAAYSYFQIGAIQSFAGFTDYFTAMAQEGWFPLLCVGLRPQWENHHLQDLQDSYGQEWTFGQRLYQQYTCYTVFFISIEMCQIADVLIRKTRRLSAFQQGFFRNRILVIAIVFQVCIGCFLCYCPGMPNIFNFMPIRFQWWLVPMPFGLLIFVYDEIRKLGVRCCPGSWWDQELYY
Description: In vitro inhibitory concentration against H+/K+ ATPase from pig stomach by probit analysis

[12] = test system: Canis familiaris; assay: Antisecretory activity calculated in heidenhain-pouch dog after id administration of the drug; assay type: functional; details: Canis lupus familiaris
[13] = test system: Canis familiaris; assay: In vivo inhibition of gastric acid secretion was calculated in heidenhain-pouch dog after iv administration of the drug at a dose of 0.5 mg/kg; assay type: functional; details: Canis lupus familiaris, Stomach
[14] = test system: Rattus norvegicus; assay: In vivo inhibition of gastric acid secretion was calculated in stomach-lumen perfused rat after iv administration of drug at a dose of 5 mg/kg; assay type: functional
[15] = physchem
Description: pKa value of the compound

[16] = species: Oryctolagus cuniculus; assay: In vitro inhibition of 14C amino pyrine uptake was determined in isolated rabbit gastric glands after dbcAMP stimulation; assay type: functional; details: Stomach
[17] = test system: Canis familiaris; assay: Antisecretory activity calculated in heidenhain-pouch dog after iv administration of the drug, values in parenthesis indicates 95% confidence limits; assay type: functional; details: Canis lupus familiaris
[18] = biological target: Potassium-transporting ATPase alpha chain 1 (Sus scrofa) (UniProt P19156); assay: Inhibition of H+/K+ ATPase from pig stomach; assay type: tissue-based; details: concentration not given here
Chain of Potassium-transporting ATPase alpha chain 1 (Sus scrofa) (P19156 whole entry): as above

SMILES	inhibition in vivo at 0.5 mg/kg [1] [%]	ED50 [3] [mg/kg]	IC50 ([4]; Stomach) [µM]	inhibition in vivo at 1 mg/kg [5] [%]	inhibition in vivo at 0.3 mg/kg [7] [%]	pKa [15]	other results
COc1c(OCC(F)(F)C(F)(F)F)ccnc1C[S+]([O-])c1nc2cscc2[nH]1 (stereo not drawn)	57	0.13	1	95	74		half-life [2]: 7.8 h; half-life [6]: 23 h; half-life [8]: 0.183 h; ED50 [9]: 0.16 mg/kg
[O-][S+](Cc1cc(OCc2ccc(F)cc2)ccn1)c1nc2cscc2[nH]1 (stereo not drawn)	85						inhibition in vivo at 0.3 mg/kg [10]: 80%; IC50 [4]: 0.5 µM; IC50 [11]: 0.5 µM
COc1ccc2[nH]c([S+]([O-])Cc3ncc(C)c(OC)c3C)nc2c1 (stereo not drawn) [OMEPRAZOLE]		0.1					half-life [2]: 2.26 h; ED50 [12]: 0.25 mg/kg; half-life [6]: 17 h; half-life [8]: 12 h
COc1c(OCC(F)(F)C(F)F)ccnc1C[S+]([O-])c1nc2cscc2[nH]1 (stereo not drawn)	79			47	58		IC50 [4]: 0.6 µM; IC50 [11]: 3 µM
Cc1ccnc(C[S+]([O-])c2nc3cscc3[nH]2)c1 (stereo not drawn)							inhibition in vivo at 0.5 mg/kg [13]: 72%; inhibition in vivo at 5 mg/kg [14]: -67%
Cc1c(OCC(F)(F)F)ccnc1C[S+]([O-])c1nc2cscc2[nH]1 (stereo not drawn)	56		21				inhibition in vivo at 0.3 mg/kg [10]: 57%
COc1c(OCC(F)(F)F)ccnc1C[S+]([O-])c1nc2cscc2[nH]1 (stereo not drawn)	64	0.08	2.5		85	3.52	IC50 [11]: 4 µM
Cc1ccc(C[S+]([O-])c2nc3cscc3[nH]2)nc1 (stereo not drawn)	78	0.11	9		72	3.26	
COc1cccnc1C[S+]([O-])c1nc2cscc2[nH]1 (stereo not drawn)	59						IC50 [16]: 290 µM
[O-][S+](Cc1cc(OCC(F)(F)C(F)(F)C(F)(F)F)ccn1)c1nc2cscc2[nH]1 (stereo not drawn) [SAVIPRAZOLE]	72		1.3	93	76	3.73	half-life [2]: 1.4 h; ED50 [17]: 0.22 mg/kg; half-life [6]: 8 h; half-life [8]: 0.05 h
COc1ccnc(C[S+]([O-])c2nc3cscc3[nH]2)c1Cl (stereo not drawn)	71	0.1	1	36	82	3.55	
COc1c(Br)cnc(C[S+]([O-])c2nc3cscc3[nH]2)c1C (stereo not drawn)	37		81				inhibition [18]: -5%
COc1c(Cl)cnc(C[S+]([O-])c2nc3cscc3[nH]2)c1C (stereo not drawn)	43		230	24			inhibition [18]: -5%
